Results: patent US20140127158A1, “COMBINATION THERAPY FOR HEPATITIS C VIRUS INFECTION” (National Health Research Institute, priority 2012, published 2014)
Like-named read-outs stand apart in the source and are kept apart here.

Columns and labels:
[1] = tested on: HCV genotype 2a replicon (JFH1); conditions: Gao et al., Nature 2010; cited from earlier work
[2] = tested on: HCV genotype 1b replicon (Con1); conditions: HCV1b replicon; Gao et al., Nature 2010; cited from earlier work
[3] = tested on: HCV genotype 1b replicon (Con1); test: Inhibitory assay for HCV replicons (luciferase), genotype 1b Con1; format: cell-based, Hepatitis C virus; conditions: HCV-1b replicon cell lines, single agent
Protocol: (2) Cell culture and HCV inhibitors. Huh-7.5 cells and their derivative HCV replicon cell lines were maintained in Dulbecco's modified Eagle's medium (DMEM, Gibco/BRL) that was supplemented with 100 U/mL penicillin-streptomycin (Gibco/BRL), 0.1 mM nonessential amino acid (NEAA, Gibco/BRL) and 10% fetal bovine serum (FBS) heat inactivated at 37° C. in 5% CO2. The HCV replicon cell lines were isolated from colonies as described in Lohman et al., Science 285:110-3 (1999). The culture medium for the replicon cells was additionally supplemented with 0.25 to 0.5 mg/mL of G418, unless specified otherwise. Compound DBPR110 and sofosbuvir were synthesized at the Institute of Biotechnology and Pharmaceutical Research at the National Health Research Institutes in Taiwan. Telaprevir (Lin et al., Antimicrob Agents Chemother, 50:1813-22 (2006)) was purchased from Acme Biosciences (Belmont, Calif.). The compounds were stored at −20° C. as 10 to 500 mM dimethyl sulfoxide (DMSO) stock solutions until the assay. IFN-α was purchased from Calbiochem (La Jolla, Calif.) and stored at −80° C.
(3) Inhibitory assay for HCV replicons. Cells were seeded at 1×10^4 (high-throughput screening assay) or 1×10^5 (regular assay) cells/well in 96- or 12-well plate, respectively, and incubated for 4 h. The medium was then aspirated and replaced with 0.1 (96-well plate) or 1 (12-well plate) mL of complete medium containing a single compound or combinations of compounds in serial concentration(s). The plates with compounds were incubated for 72 h and then assayed for luciferase expression (Promega). The EC50 of each compound was determined independently and used to determine the range of concentrations used for the combination experiments. All data are presented as the means±standard deviations (SD) from three independent experiments. The selectivity index (SI) was calculated as the ratio of the CC50 to the EC50.

[4] = Cytotoxicity assay (MTT); format: cell-based; conditions: human
Protocol: (§1) (4) Cytotoxicity assay. The sensitivity of the cell lines to inhibitors was examined using a 3-(4,5-Dimethylthiazol-2-yl)-2,5-diphenyltetrazolium bromide (MTT) assay. Briefly, Huh-7.5 cells were plated at a density of 1×10^5 cells per well in 12-well plates containing 1 mL of culture medium for 4 h. Serial dilutions of the compounds or DMSO (negative control) were added, and the plates were incubated for an additional 72 h. The MTT reagent was then added to each well, and the plates were incubated for 3 h at 37° C. in a humidified 5% CO2 atmosphere before reading at a wavelength of 563 nm using an ELISA plate reader. All data are presented as the means +/−SD from four independent experiments.

[5] = tested on: HCV genotype 1b replicon; test: Inhibitor combination study (combination index, CalcuSyn); conditions: at the concentrations used in the combination experiments
[6] = tested on: Huh-7.5 cells; test: Cytotoxicity assay (MTT); format: cell-based; conditions: HCV-1b replicon cell lines; single agent
Protocol: as §1

[7] = Hepatitis C virus, read-out: EC50
[8] = Hepatitis C virus, read-out: EC90
[9] = HCV-1b replicon cell lines, single agent, read-out: CC50

Compound	EC50 [1]	EC50 [2]	EC50 [3, 7]	EC90 [3, 8]	CC50 at 72 h [4, 9]	cytotoxicity [5]	CC50 at 72 h [4]	EC50 [3]	EC90 [3]	CC50 [6]
COC(=O)N[C@H](C(=O)N1CCC[C@H]1c1nc(-c2ccc(-c3ccc(-c4c[nH]c([C@@H]5CCCN5C(=O)[C@@H](NC(=O)OC)C(C)C)n4)cc3)cc2)c[nH]1)C(C)C [BMS-790052]	0.071 nM	0.009 nM								
CC(C)(C)NC(=O)N[C@H](C(=O)N1C[C@H]2[C@@H]([C@H]1C(=O)NC(CC1CCC1)C(=O)C(N)=O)C2(C)C)C(C)(C)C (stereo partly drawn) [Boceprevir, boceprevir, reference compound]			361 ± 19.9 nM	962 ± 21.5 nM	> 5000 nM	No cytotoxicity was observed				
NC(=O)c1ncn([C@@H]2O[C@H](CO)[C@@H](O)[C@H]2O)n1 [Ribavirin, ribavirin, reference compound]			20500 ± 3500 nM	95000 ± 20100 nM			> 200000 nM			
CC(C)OC(=O)[C@H](C)N[P@](=O)(OC[C@H]1O[C@@H](n2ccc(=O)[nH]c2=O)[C@](C)(F)[C@@H]1O)Oc1ccccc1 [Sofosbuvir, sofosbuvir, reference compound]			91.5 ± 18.3 nM	323 ± 66.1 nM	> 5000 nM	No cytotoxicity was observed				
CCC[C@H](NC(=O)[C@@H]1[C@H]2CCC[C@H]2CN1C(=O)[C@@H](NC(=O)[C@@H](NC(=O)c1cnccn1)C1CCCCC1)C(C)(C)C)C(=O)C(=O)NC1CC1 [Telaprevir, telaprevir, reference compound]			301.6 ± 2.8 nM	912 ± 75.4 nM	> 5000 nM	No cytotoxicity was observed				
IFN-α						No cytotoxicity was observed		35.1±4.7 IU/mL	327.0 ± 0.01 IU/mL	>2,000 IU/mL
